Series [1] relates to Mus musculus. As to the kind of experiment: Antipsychotic activity in NMRI mouse assessed as reduction in methamphetamine-induced locomotor activity at 3 mg/kg administered 30 mins prior to testing measured for 60 mins relative to control. The series is classed as functional, organism-based. Also on record: dose 3 mg/kg.
Series [2] relates to Mus musculus. In words: Antipsychotic activity in NMRI mouse assessed as reduction in phencyclidine-induced locomotor activity at 3 mg/kg administered 30 mins prior to testing measured for 60 mins. The series is classed as functional, organism-based. Set-up: dose 3 mg/kg.
Series [3] concerns Mus musculus. As to the kind of experiment: Antipsychotic activity in NMRI mouse assessed as reduction in phencyclidine-induced locomotor activity at 10 mg/kg administered 30 mins prior to testing measured for 60 mins. Set-up: dose 10 mg/kg. The series is classed as functional, organism-based.
Series [4] concerns Rattus norvegicus. In words: Induction of c-Fos protein expression in rat nucleus accumbens shell at 3 mg/kg, ip after 1 hr by light microscopy. The series is classed as functional, organism-based. Set-up: dose 3 mg/kg.
For series [5], the system named is Rattus norvegicus. As to the kind of experiment: Induction of c-Fos protein expression in rat nucleus accumbens core subregion at 3 mg/kg, ip after 1 hr by light microscopy. Also on record: dose 3 mg/kg. The series is classed as functional, organism-based.
Series [6] relates to Rattus norvegicus. In words: Induction of c-Fos protein expression in rat nucleus accumbens core subregion at 10 mg/kg, ip after 1 hr by light microscopy. It counts as functional, organism-based. Set-up: dose 10 mg/kg.
Series [7] deals with Rattus norvegicus. As to the kind of experiment: Induction of c-Fos protein expression in rat dorsolateral striatum at 30 mg/kg, ip after 1 hr by light microscopy. It counts as functional, organism-based. Set-up: dose 30 mg/kg.
The subject of series [8] is Rattus norvegicus. As to the kind of experiment: Induction of c-Fos protein expression in ip dosed rat dorsolateral striatum after 1 hr by light microscopy. It counts as functional, organism-based.
Series [9] has as its target T1, Adrenergic receptor alpha-1 (Rattus norvegicus, UniProt P15823+P23944+P43140).
T1 sequence (P15823 whole entry): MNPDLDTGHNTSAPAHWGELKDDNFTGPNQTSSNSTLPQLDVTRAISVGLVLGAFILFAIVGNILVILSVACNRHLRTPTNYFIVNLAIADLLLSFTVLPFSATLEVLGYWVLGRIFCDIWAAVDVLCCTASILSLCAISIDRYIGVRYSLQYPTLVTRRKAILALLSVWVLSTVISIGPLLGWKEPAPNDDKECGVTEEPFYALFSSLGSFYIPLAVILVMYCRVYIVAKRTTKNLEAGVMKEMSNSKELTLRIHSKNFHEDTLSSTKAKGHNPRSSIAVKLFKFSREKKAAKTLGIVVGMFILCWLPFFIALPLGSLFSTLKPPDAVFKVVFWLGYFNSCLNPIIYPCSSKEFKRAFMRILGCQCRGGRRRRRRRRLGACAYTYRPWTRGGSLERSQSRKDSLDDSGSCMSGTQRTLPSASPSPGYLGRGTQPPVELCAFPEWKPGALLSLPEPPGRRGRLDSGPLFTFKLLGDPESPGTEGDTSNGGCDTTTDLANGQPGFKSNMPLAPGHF
T1 sequence (P23944 whole entry): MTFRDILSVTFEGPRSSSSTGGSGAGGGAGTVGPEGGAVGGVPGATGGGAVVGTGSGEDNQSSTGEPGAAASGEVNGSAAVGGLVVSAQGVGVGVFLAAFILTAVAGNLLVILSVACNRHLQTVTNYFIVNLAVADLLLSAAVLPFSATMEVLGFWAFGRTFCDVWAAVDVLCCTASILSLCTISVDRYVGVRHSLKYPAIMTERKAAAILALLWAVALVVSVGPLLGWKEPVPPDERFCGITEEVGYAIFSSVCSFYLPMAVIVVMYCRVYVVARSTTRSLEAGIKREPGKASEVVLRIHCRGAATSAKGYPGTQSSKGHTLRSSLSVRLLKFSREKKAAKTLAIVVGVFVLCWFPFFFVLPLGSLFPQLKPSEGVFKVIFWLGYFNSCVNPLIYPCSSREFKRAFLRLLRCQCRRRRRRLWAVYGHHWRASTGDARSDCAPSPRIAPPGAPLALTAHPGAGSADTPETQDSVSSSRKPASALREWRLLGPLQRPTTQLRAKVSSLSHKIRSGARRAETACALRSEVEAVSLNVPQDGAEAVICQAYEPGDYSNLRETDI
T1 sequence (P43140 whole entry): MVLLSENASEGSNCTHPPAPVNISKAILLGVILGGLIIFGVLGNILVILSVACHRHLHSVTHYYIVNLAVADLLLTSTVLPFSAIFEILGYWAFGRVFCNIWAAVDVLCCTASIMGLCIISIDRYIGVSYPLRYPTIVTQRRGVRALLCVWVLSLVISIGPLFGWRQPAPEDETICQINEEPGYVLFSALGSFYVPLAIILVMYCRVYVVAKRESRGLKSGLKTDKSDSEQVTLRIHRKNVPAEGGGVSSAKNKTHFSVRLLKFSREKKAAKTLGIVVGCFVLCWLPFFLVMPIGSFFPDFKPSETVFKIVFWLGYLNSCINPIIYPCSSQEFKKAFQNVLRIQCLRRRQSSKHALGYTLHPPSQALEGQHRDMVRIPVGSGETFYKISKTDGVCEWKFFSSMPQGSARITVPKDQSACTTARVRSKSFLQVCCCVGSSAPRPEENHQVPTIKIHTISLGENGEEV
As to the kind of experiment: Displacement of [3H]prazosin from adrenergic alpha1 receptor in rat cerebral cortex by liquid scintillation counting. The series is classed as tissue-based.

The target in a further series is D(1A) dopamine receptor (Rattus norvegicus, UniProt P18901).
Series [10] concerns the target 5-hydroxytryptamine receptor 2A (Rattus norvegicus, UniProt P14842).
Description: Displacement of [3H]ketanserin from 5HT2A receptor in CRL:CD(SD)BR-COBS rat cortex by scintillation spectrometry
In series [11] the target is Voltage-gated inwardly rectifying potassium channel KCNH2 (Homo sapiens, UniProt Q12809).
Description: Binding affinity to human ERG expressed in HEK293 cells by whole cell patch clamp method
The species named for series [12] is Mus musculus. The settings on record: in vivo, 0.5 h.
Description: Sedative activity in NMRI mouse assessed as reduction in spontaneous locomotor activity administered 30 mins prior to testing
The species entered for series [13] is Mus musculus. The settings on record: in vivo, sc, 1 h.
Description: Toxicity in sc dosed NMRI mouse assessed as cataleptogenic potential administered 30 mins prior to testing measured every 15 mins for 60 mins by horizontal bar test
The next series deals with D(3) dopamine receptor (Homo sapiens, UniProt P35462). As to the kind of experiment: biochemical.
The species entered for series [14] is Mus musculus. As to the kind of experiment: animal or person. The note with it: NMRI.
Description: (§1) Antipsychotic activity in NMRI mouse assessed as reduction in methamphetamine-induced locomotor activity administered 30 mins prior to testing measured for 60 mins
Series [15] is filed under the species Mus musculus. As to the kind of experiment: animal or person. The settings on record: NMRI. The source holds these as a separate data set.
Description: Antipsychotic activity in NMRI mouse assessed as reduction in phencyclidine-induced locomotor activity administered 30 mins prior to testing measured for 60 mins
Series [16] deals with Mus musculus. The settings on record: NMRI.
Description: as §1

Active and inactive are the calls of the source. The rule behind the calls is not given here. Some results are limits rather than exact numbers.

Sequence of Voltage-gated inwardly rectifying potassium channel KCNH2 (Q12809 whole entry): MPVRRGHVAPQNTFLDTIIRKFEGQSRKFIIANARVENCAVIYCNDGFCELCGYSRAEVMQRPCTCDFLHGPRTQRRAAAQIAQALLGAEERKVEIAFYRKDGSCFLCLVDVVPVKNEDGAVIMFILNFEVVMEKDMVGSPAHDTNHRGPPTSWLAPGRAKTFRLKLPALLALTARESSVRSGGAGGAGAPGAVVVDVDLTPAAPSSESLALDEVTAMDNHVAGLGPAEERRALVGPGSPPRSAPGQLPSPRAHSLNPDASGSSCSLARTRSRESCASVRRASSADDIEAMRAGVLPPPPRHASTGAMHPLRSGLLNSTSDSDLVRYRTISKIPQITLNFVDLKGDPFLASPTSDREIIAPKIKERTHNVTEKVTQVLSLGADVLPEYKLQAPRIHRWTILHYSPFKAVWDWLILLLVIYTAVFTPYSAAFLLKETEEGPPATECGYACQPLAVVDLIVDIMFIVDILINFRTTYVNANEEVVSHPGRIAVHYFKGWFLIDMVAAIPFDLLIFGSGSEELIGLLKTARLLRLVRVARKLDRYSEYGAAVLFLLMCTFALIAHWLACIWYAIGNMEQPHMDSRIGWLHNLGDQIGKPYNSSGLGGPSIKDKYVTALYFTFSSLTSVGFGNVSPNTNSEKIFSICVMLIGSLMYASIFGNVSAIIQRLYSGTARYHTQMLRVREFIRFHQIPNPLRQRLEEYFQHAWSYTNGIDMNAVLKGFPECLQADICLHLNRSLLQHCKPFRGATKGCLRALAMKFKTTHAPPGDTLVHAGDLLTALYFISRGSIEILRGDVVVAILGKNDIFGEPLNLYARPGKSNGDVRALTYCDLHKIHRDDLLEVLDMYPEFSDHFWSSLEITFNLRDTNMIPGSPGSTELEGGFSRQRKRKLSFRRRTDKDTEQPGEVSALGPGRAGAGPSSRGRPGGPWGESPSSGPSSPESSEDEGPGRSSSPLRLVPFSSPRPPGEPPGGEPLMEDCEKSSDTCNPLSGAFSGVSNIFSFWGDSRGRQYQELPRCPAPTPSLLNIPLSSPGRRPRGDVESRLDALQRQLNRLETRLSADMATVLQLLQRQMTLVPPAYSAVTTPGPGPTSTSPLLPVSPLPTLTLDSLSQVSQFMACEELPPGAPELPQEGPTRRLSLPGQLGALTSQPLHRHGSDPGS
Sequence of D(3) dopamine receptor (P35462 whole entry): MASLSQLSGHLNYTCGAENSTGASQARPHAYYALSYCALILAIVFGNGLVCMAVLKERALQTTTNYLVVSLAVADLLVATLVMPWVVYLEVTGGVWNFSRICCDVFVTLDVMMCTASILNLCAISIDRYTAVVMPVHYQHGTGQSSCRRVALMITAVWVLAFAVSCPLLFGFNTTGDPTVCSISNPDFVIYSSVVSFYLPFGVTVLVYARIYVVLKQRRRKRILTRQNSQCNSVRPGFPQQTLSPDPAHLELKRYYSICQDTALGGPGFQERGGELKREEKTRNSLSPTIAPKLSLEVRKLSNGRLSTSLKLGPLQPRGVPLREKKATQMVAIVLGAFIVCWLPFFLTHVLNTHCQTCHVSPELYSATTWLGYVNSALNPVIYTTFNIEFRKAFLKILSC
Sequence of 5-hydroxytryptamine receptor 2A (P14842 whole entry): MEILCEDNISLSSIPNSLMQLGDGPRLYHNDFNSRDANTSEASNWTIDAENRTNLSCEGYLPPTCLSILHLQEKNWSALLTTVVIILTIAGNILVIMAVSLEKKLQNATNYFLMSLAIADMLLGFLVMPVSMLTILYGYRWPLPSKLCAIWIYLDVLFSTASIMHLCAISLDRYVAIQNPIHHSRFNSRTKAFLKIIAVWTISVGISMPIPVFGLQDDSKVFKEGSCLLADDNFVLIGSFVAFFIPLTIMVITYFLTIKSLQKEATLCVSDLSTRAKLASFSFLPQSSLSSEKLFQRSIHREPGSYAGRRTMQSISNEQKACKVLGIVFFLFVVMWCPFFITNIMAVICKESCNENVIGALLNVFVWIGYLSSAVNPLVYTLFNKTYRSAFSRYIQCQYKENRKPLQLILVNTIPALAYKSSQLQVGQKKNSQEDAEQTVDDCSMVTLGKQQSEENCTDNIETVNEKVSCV
Sequence of D(1A) dopamine receptor (P18901 whole entry): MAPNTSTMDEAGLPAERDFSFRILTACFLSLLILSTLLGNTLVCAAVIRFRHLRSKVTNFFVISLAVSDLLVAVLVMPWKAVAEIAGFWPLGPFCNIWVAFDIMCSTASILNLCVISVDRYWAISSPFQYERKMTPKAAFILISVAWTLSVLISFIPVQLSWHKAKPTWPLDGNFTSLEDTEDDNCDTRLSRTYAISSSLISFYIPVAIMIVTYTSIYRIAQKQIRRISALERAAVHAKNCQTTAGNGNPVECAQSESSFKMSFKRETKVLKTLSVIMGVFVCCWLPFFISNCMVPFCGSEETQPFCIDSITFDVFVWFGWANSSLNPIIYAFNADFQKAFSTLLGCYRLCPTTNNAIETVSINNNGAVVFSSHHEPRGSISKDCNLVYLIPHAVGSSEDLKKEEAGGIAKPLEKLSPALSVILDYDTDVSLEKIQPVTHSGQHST
Description for D(1A) dopamine receptor: Displacement of [3H]SCH23390 from dopamine D1 receptor in CRL:CD(SD)BR-COBS rat striatum by scintillation spectrometry
Description for D(3) dopamine receptor: Displacement of [3H]7OH-DPAT from dopamine D3 receptor expressed in Sf9 cells by scintillation spectrometry

In the case of `Cc1cccc(N2CCN(CCCCNC(=O)c3cc4ccccc4o3)CC2)c1`, the result with Mus musculus [1], with Mus musculus [2], in the series on Mus musculus [3], with Rattus norvegicus [4], in the series on Rattus norvegicus [6] and with Rattus norvegicus [7] was Active. In the series on Rattus norvegicus [5], the outcome was inactive. Also, the Activity result in the series with Rattus norvegicus [8] and with Mus musculus [16] was “Dose-dependent effect” each time. The Ki in series [9] is 0.006 µM; at D(1A) dopamine receptor, 3.29 µM; in series [10], 0.0153 µM; in [11] it was 0.93 µM; on D(3) dopamine receptor it was 0.0045 µM. Moreover, the ED50 in the series filed under Mus musculus [12] was 5.5 mg/kg; in the series listed under Mus musculus [13], > 30 mg/kg; in the series filed under Mus musculus [14], 2.1 mg/kg; in the series listed under Mus musculus [15], 2.6 mg/kg.

Values taken from ChEMBL document CHEMBL1139353, “Discovery of a new class of potential multifunctional atypical antipsychotic agents targeting dopamine D3 and serotonin 5-HT1A and 5-HT2A receptors: design, synthesis, and effects on behavior” (J Med Chem, 2009).
